Experimental findings from patent US8057829B2, “Methods for repelling insects using sesquiterpene hydrocarbons and their derivatives” (Sterling International Inc., priority 2008, dated 2011) are described below.

The subject of one assay is houseflies. Description: Laboratory sticky trap bioassay of spatial repellency with egg powder attractant. The format is in vivo, housefly (Musca domestica). The conditions noted are these: for female house flies per trap / male house flies per trap: egg powder plus repellent; for repellency against houseflies, in words: laboratory trap bioassay with egg powder attractant. On the procedure:
Laboratory bioassay tests were carried out to investigate the efficacy of some of the EAD-active compounds described above to act as spatial repellents against several insects. The procedure for the bioassay tests is described in Example 2 below. Briefly stated, the bioassay included using egg powder (EP) as an attractant for flies, while the compound whose insect repellency was being tested was placed in proximity to the egg powder. In FIGS. 11-13, the bioassay was carried out on houseflies using devices known by the designation Trécé Pherocon® VI sticky traps.
The following lab bioassay tests were employed to illustrate the efficacy of the compounds to effectively act as spatial repellents for flies. Three sets of tests were conducted in a fly testing room (23° C., 70% RH, and 12/12 (L/D) light regime illuminated by fluorescent lights). Two sets of tests were carried out using Trécé Pherocon® VI traps with sticky inserts, which were set up on poles evenly spaced on a rotating table. The traps were ca. 1 m above a table surface, and ca. 1 m apart from each other. Two grams of egg powder in a white cap (4 cm in diameter, 0.5 cm in height) used as an attractant was put on the center of the sticky insert in the sticky trap. The potential repellent candidate chemicals were loaded into polyethylene bags, and were hung under the inner roof of the traps, 1-1.5 cm above the egg powder attractant. A control had the empty white cap and blank polyethylene bag, while the positive control had only the egg powder and an empty polyethylene bag. The test table was rotated 1.5 r.p.h. […] About 200-300 houseflies (2-3 days old) were released into the testing room for each test. Tests were normally run from 8:00 am to 5:00 pm, and the numbers of houseflies caught in each trap were counted after each test. The results of these tests are shown in FIGS. 11-13 and described above.

Another assay concerns Aedes aegypti. Description: K&D module behavioral bioassay (topical repellency, biting). The format is in vivo. An outline of the steps: (§1)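 In vitro six-cell K&D module over 38 °C CPDA+ATP artificial blood under collagen membrane, topped by nylon organdy treated with five ethanol dilutions of test chemical (ethanol blank; DEET ca. 10 μg/cm^2 positive control). Five starved (24 h) 5–10 d-old females per cell. Biting counted over 3 min, three replicates per chemical and species.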

A further assay concerns Anopheles stephensi. The assay is described as above. The format is in vivo. An outline of the steps: as §1
The test system of assay [1] is male false stable fly Muscina stabulans antenna and female mosquito Aedes (Ochlerotatus) increpitus Dyar antenna. Description: GC-EAD responses of false stable fly and Aedes increpitus to a synthetic mixture. The conditions noted are these: about 100 ng of each compound, FIG. 5. The procedure: The GC-EAD responses of the male false stable fly Muscina stabulans antenna and the female mosquito Aedes (Ochlerotatus) increpitus Dyar antenna were tested on a synthetic mixture of linalool and two representative sesquiterpene hydrocarbons, β-caryophyllene and α-humulene, and one sesquiterpene oxide, β-caryophyllene oxide, with about 100 ng of each compound in the mixture.
The following procedures were employed to test the EAD response of an insect antenna to a repellent compound. The GC-EAD technique provides an efficient tool for screening behaviorally active repellents. Several synthetic mixtures of potential insect repellent candidates, mostly sesquiterpene hydrocarbons and derivatives, were analyzed in splitless mode using a Varian CP-3800 GC equipped with a polar column (Innowax; 1.0 μm film thickness, 30 m×0.53 mm ID; J & W Scientific), and a 1:1 effluent splitter that allowed simultaneous flame ionization detection (FID) and EAD of the separated volatile compounds. Helium was used as the carrier gas, and the injector temperature was 220° C. The column temperature was 50° C. for 2 min, rising to 240° C. at 10° C./min, then held for 10 min. The outlet for the EAD was held in a humidified air stream flowing at 0.5 liter/min. over an antennal preparation. A glass capillary indifferent electrode filled with Beadle-Ephrussi Ringer, and grounded via a silver wire, was inserted into the severed insect's head with the antennae. A similar recording electrode connected to a high-impedance DC amplifier with automatic baseline drift compensation was placed in contact with the distal end of one antenna (Zhang et al., Chemoecology, 10:69-80 (2000)). The antennal signals were stored and analyzed on a PC equipped with a serial IDAC interface box and the program EAD ver. 2.5 (Syntech, Hilversum, The Netherlands). The compound 1-octen-3-ol (known attractant for many flies and mosquitoes) was included in most of the synthetic mixtures, as a positive control. The results of the experiments are shown in FIGS. 1-10 and described above.

The mark [2] stands for this setting: FIG. 13, egg powder alone 76 females.
Where [3] appears, read: FIG. 13, egg powder alone 95 males.
[4] abbreviates: 10 μg/cm^2, DEET values are the positive control run with the chemical.
The mark [5] stands for this setting: FIG. 12, egg powder alone 35 females.
Setting [6] is: FIG. 12, egg powder alone 68 males.

For `C=C1C2CCC3[C@H]2C(C)(C)CCC[C@]13C` (single isomer, unassigned; (+)) [(+)-Longifolene], the “female house flies per trap” value with houseflies (setting [2]) turned out to be 4 house flies per trap. For the same compound, the “male house flies per trap” value in the assay with houseflies (setting [3]) was “one”. Moreover, the “repellency against houseflies, in words” value in the assay with houseflies is given as “strongest repellent against houseflies”. The “% of biting (±SE) (N = 3)” value was determined as 53 ± 7c % in the assay on Aedes aegypti (setting [4]); 33 ± 13bc % in the assay on Aedes aegypti (100 μg/cm^2); 0 ± 0a % in the assay with Aedes aegypti (500 μg/cm^2); 0 ± 0a % in the assay with Aedes aegypti (1000 μg/cm^2); 53 ± 7c % in the assay with Anopheles stephensi (setting [4]); 33 ± 7bc % in the assay with Anopheles stephensi (100 μg/cm^2). The “% of biting (±SE) (N = 3)” value with Anopheles stephensi (500 μg/cm^2) and in the assay on Anopheles stephensi (1000 μg/cm^2) was 0 ± 0a % in each case.

Turning to `C=C1CC/C=C(/C)CC[C@@H]2[C@@H]1CC2(C)C` [Isocaryophyllene, isocaryophyllene], the “female house flies per trap” value with houseflies (setting [5]) worked out at 15 house flies per trap. In addition, the “male house flies per trap” value in the assay on houseflies (setting [6]) stood at 14 house flies per trap. Also, the “% of biting (±SE) (N = 3)” value in the assay on Aedes aegypti (setting [4]) worked out at 33 ± 7b %; in the assay with Aedes aegypti (100 μg/cm^2), 0 ± 0a %; with Aedes aegypti (500 μg/cm^2) it was 0 ± 0a %; in the assay on Aedes aegypti (1000 μg/cm^2) it was 0 ± 0a %; with Anopheles stephensi (setting [4]), 33 ± 13b %; in the assay on Anopheles stephensi (100 μg/cm^2) it was 7 ± 7a %. Also, the “% of biting (±SE) (N = 3)” value in the assay with Anopheles stephensi (500 μg/cm^2) and with Anopheles stephensi (1000 μg/cm^2) was 0 ± 0a % throughout.

Regarding `C=C1CC/C=C(\C)CC[C@@H]2[C@@H]1CC2(C)C` [β-Caryophyllene, β-caryophyllene], the GC-EAD antennal activity result in assay [1] is “active on at least one of the insects tested”. Further, the “number of house flies per trap” value in the assay on houseflies (egg powder attractant plus repellent, FIG. 11, egg powder alone 44) is reported as 3.5 house flies per trap. The “female house flies per trap” value is on record as 12 house flies per trap in the assay on houseflies (setting [5]) and 10 house flies per trap in the assay on houseflies (setting [2]). Besides, the “male house flies per trap” value in the assay with houseflies (setting [6]) was “six”; in the assay on houseflies (setting [3]), “two”. Moreover, in the assay on houseflies, the “repellency against houseflies, in words” value was “effective housefly repellents”. For the same compound, the “% of biting (±SE) (N = 3)” value was 40 ± 12b % in the assay on Aedes aegypti (setting [4]); 33 ± 24b % in the assay with Aedes aegypti (100 μg/cm^2); 0 ± 0a % in the assay on Aedes aegypti (500 μg/cm^2); 0 ± 0a % with Aedes aegypti (1000 μg/cm^2); 47 ± 18bc % in the assay with Anopheles stephensi (setting [4]); 40 ± 12bc % in the assay with Anopheles stephensi (100 μg/cm^2). Besides, the “% of biting (±SE) (N = 3)” value is 0 ± 0a % with Anopheles stephensi (500 μg/cm^2) and 7 ± 7a % in the assay on Anopheles stephensi (1000 μg/cm^2).
